Source: patent publication US9273058B2 (BRISTOL-MYERS SQUIBB COMPANY, priority 2013, dated 2016)

Tests used:
CK1ε = CK1ε (Homo sapiens, UniProt P49674); assay: CK1ε kinase assay (Caliper LabChip electrophoretic separation of fluoresceinated peptide substrate and product); assay type: biochemical; settings: 200 pM CK1ε, 50 μM ATP, 1.5 μM peptide, 22 hours at room temperature; read-out: CK1ε IC50 range
Procedure, shortened: (§1)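 Incubated for twenty-two hours at ambient temperature, then quenched with EDTA and analyzed by electrophoretic separation of unphosphorylated and phosphorylated peptide.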

CK1δ = CK1δ (Homo sapiens, UniProt P48730); assay: CK1δ kinase assay (Caliper LabChip electrophoretic separation of fluoresceinated peptide substrate and product); assay type: biochemical; settings: 200 pM CK1δ, 50 μM ATP, 1.5 μM peptide, 22 hours at room temperature; read-out: CK1δ IC50 range
Sequence of CK1δ (P48730 whole entry): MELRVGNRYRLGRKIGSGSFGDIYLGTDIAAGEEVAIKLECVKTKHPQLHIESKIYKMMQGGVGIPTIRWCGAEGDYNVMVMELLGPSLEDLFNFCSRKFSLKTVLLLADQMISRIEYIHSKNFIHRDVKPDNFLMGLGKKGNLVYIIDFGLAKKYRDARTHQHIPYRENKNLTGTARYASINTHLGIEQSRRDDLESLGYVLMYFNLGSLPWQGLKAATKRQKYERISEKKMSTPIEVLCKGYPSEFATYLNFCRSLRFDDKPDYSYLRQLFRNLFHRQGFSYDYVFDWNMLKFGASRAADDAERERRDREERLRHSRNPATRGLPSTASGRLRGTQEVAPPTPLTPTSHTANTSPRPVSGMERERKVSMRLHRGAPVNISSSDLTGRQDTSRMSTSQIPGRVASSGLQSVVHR
Procedure, shortened: as §1

Sequence of CK1ε (P49674 whole entry): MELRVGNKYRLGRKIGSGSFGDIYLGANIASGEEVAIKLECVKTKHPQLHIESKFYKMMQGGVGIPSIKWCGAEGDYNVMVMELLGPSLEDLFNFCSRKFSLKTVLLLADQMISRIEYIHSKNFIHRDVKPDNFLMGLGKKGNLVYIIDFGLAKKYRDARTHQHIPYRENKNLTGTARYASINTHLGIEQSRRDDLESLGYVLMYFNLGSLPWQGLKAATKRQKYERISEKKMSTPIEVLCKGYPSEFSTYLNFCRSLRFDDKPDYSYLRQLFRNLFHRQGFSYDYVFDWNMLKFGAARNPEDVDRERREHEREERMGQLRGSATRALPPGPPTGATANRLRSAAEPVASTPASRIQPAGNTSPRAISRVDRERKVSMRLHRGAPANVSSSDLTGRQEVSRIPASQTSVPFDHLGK

| IC50 (CK1ε) [nM] | IC50 (CK1δ) [nM] | Structure (SMILES) |
| --- | --- | --- |
| 0.01 to 10 | 0.01 to 10 | CC1(NC(=O)N2Cc3c(C(N)=O)c(-c4ccc(F)c(Cl)c4)nn3C(CF)C2)CC(F)(F)C1 (centres unmarked) [Compound A9, 2-(3-Chloro-4-fluorophenyl)-N^5-(3,3-difluoro-1-methylcyclobutyl)-7-(fluoromethyl)-6,7-dihydropyrazolo[1,5-a]pyrazine-3,5(4H)-dicarboxamide] |
| 0.01 to 10 | 0.01 to 10 | CC1(NC(=O)N2Cc3c(C(N)=O)c(-c4ccc(F)c(Cl)c4)nn3C(CF)C2)CC(F)(F)C1 (centres unmarked) [Compound A10, 2-(3-Chloro-4-fluorophenyl)-N^5-(3,3-difluoro-1-methylcyclobutyl)-7-(fluoromethyl)-6,7-dihydropyrazolo[1,5-a]pyrazine-3,5(4H)-dicarboxamide] |
| 0.01 to 10 | 0.01 to 10 | NC(=O)c1c(-c2ccc(F)c(Cl)c2)nn2c1CN(C(=O)NC1CCCC1)CC2C(F)F (centres unmarked) [Compound A11, 2-(3-Chloro-4-fluorophenyl)-N^5-cyclopentyl-7-(difluoromethyl)-6,7-dihydropyrazolo[1,5-a]pyrazine-3,5(4H)-dicarboxamide] |
| 0.01 to 10 | 10 to 100 | NC(=O)c1c(-c2ccc(F)c(Cl)c2)nn2c1CN(C(=O)NC1CCCC1)CC2C(F)F (centres unmarked) [Compound A12, 2-(3-Chloro-4-fluorophenyl)-N^5-cyclopentyl-7-(difluoromethyl)-6,7-dihydropyrazolo[1,5-a]pyrazine-3,5(4H)-dicarboxamide] |
| 0.01 to 10 | 0.01 to 10 | NC(=O)c1c(-c2ccc(F)c(Cl)c2)nn2c1CN(C(=O)NC1CCC(F)(F)CC1)C[C@H]2C(F)F [Compound A13, (S)-2-(3-Chloro-4-fluorophenyl)-N^5-(4,4-difluorocyclohexyl)-7-(difluoromethyl)-6,7-dihydropyrazolo[1,5-a] pyrazine-3,5(4H)-dicarboxamide] |
| 0.01 to 10 | 0.01 to 10 | NC(=O)c1c(-c2ccc(F)c(Cl)c2)nn2c1CN(C(=O)NC1CCC(F)(F)CC1)C[C@@H]2C(F)F [Compound A14, (R)-2-(3-Chloro-4-fluorophenyl)-N^5-(4,4-difluorocyclohexyl)-7-(difluoromethyl)-6,7-dihydropyrazolo[1,5-a] pyrazine-3,5(4H)-dicarboxamide] |
| 0.01 to 10 | 0.01 to 10 | CC(C)(C)NC(=O)N1Cc2c(C(N)=O)c(-c3ccc(F)c(Cl)c3)nn2C(CN2CCOCC2)C1 (centres unmarked) [Compound A15, N^5-(tert-Butyl)-2-(3-chloro-4-fluorophenyl)-7-(morpholinomethyl)-6,7-dihydropyrazolo[1,5-a]pyrazine-3,5(4H)-dicarboxamide] |
| 0.01 to 10 | 10 to 100 | CC(C)(C)NC(=O)N1Cc2c(C(N)=O)c(-c3ccc(F)c(Cl)c3)nn2C(CN2CCOCC2)C1 (centres unmarked) [Compound A16, N^5-(tert-Butyl)-2-(3-chloro-4-fluorophenyl)-7-(morpholinomethyl)-6,7-dihydropyrazolo[1,5-a]pyrazine-3,5(4H)-dicarboxamide] |
| 10 to 100 | 10 to 100 | CC(C)(C)NC(=O)N1Cc2c(C(N)=O)c(-c3ccc(F)c(Cl)c3)nn2C(C(C)(C)O)C1 (centres unmarked) [Compound A17, N^5-(tert-Butyl)-2-(3-chloro-4-fluorophenyl)-7-(2-hydroxypropan-2-yl)-6,7-dihydropyrazolo[1,5-a]pyrazine-3,5(4H)-dicarboxamide] |
| 0.01 to 10 | 0.01 to 10 | CC(C)(C)NC(=O)N1Cc2c(C(N)=O)c(-c3ccc(F)c(Cl)c3)nn2C(C(C)(C)O)C1 (centres unmarked) [Compound A18, N^5-(tert-Butyl)-2-(3-chloro-4-fluorophenyl)-7-(2-hydroxypropan-2-yl)-6,7-dihydropyrazolo[1,5-a]pyrazine-3,5(4H)-dicarboxamide] |
| 10 to 100 | 10 to 100 | CC(C)(O)[C@@H]1CN(C(=O)NC2CC(F)(F)C2)Cc2c(C(N)=O)c(-c3ccc(F)c(Cl)c3)nn21 [Compound A19, (S)-2-(3-Chloro-4-fluorophenyl)-N^5-(3,3 - difluorocyclobutyl)-7-(2-hydroxypropan-2-yl)-6,7-dihydropyrazolo[1,5-a] pyrazine-3,5(4H)-dicarboxamide] |
| 0.01 to 10 | 0.01 to 10 | CC(C)(O)[C@H]1CN(C(=O)NC2CC(F)(F)C2)Cc2c(C(N)=O)c(-c3ccc(F)c(Cl)c3)nn21 [Compound A20, (R)-2-(3-Chloro-4-fluorophenyl)-N^5-(3,3 difluorocyclobutyl)-7-(2-hydroxypropan-2-yl)-6,7-dihydropyrazolo[1,5-a] pyrazine-3,5(4H)-dicarboxamide] |
| 0.01 to 10 | 10 to 100 | CC(C)(C)NC(=O)N1Cc2c(C(N)=O)c(-c3ccc(F)c(Cl)c3)nn2C(COC(F)F)C1 (centres unmarked) [Compound A21, N^5-(tert-Butyl)-2-(3-chloro-4-fluorophenyl)-7-((difluoromethoxy)methyl)-6,7-dihydropyrazolo[1,5-a]pyrazine-3,5(4H)-dicarboxamide] |
| 0.01 to 10 | 0.01 to 10 | CC(C)(C)NC(=O)N1Cc2c(C(N)=O)c(-c3ccc(F)c(Cl)c3)nn2C(COC(F)F)C1 (centres unmarked) [Compound A22, N^5-(tert-Butyl)-2-(3-chloro-4-fluorophenyl)-7-((difluoromethoxy)methyl)-6,7-dihydropyrazolo[1,5-a]pyrazine-3,5(4H)-dicarboxamide] |
| 10 to 100 | 100 to 2000 | CC(C)(C)NC(=O)N1Cc2c(C(N)=O)c(-c3ccc(F)c(Cl)c3)nn2C(C(=O)NC2CC2)C1 (centres unmarked) [Compound A23, N^5-(tert-Butyl)-2-(3-chloro-4-fluorophenyl)-N^7-cyclopropyl-6,7-dihydropyrazolo[1,5-a]pyrazine-3,5,7(4H)-tricarboxamide] |
| 10 to 100 | 100 to 2000 | CC(C)(C)NC(=O)N1Cc2c(C(N)=O)c(-c3ccc(F)c(Cl)c3)nn2C(C(=O)NC2CC2)C1 (centres unmarked) [Compound A24, N^5-(tert-Butyl)-2-(3-chloro-4-fluorophenyl)-N^7-cyclopropyl-6,7-dihydropyrazolo[1,5-a]pyrazine-3,5,7(4H)-tricarboxamide] |
| 0.01 to 10 | 0.01 to 10 | CC1(NC(=O)N2Cc3c(C(N)=O)c(-c4ccc(Cl)c(Cl)c4)nn3C(CF)C2)CC(F)(F)C1 (centres unmarked) [Compound A27, 2-(3,4-Dichlorophenyl)-N^5-(3,3-difluoro-1-methylcyclobutyl)-7-(fluoromethyl)-6,7-dihydropyrazolo[1,5-a]pyrazine-3,5(4H)-dicarboxamide] |
| 0.01 to 10 | 0.01 to 10 | CC1(NC(=O)N2Cc3c(C(N)=O)c(-c4ccc(Cl)c(Cl)c4)nn3C(CF)C2)CC(F)(F)C1 (centres unmarked) [Compound A28, 2-(3,4-Dichlorophenyl)-N^5-(3,3-difluoro-1-methylcyclobutyl)-7-(fluoromethyl)-6,7-dihydropyrazolo[1,5-a]pyrazine-3,5(4H)-dicarboxamide] |
| 0.01 to 10 | 0.01 to 10 | NC(=O)c1c(-c2ccc(Cl)c(Cl)c2)nn2c1CN(C(=O)NC1CC(F)(F)C1)C[C@H]2CF [Compound A29, (S)-2-(3,4-dichlorophenyl)-N^5-(3,3-difluorocyclobutyl)-7-(fluoromethyl)-6,7-dihydropyrazolo[1,5-a] pyrazine-3,5(4H)-dicarboxamide] |
